Assay results published in patent US20250368648A1, “MULTI-CYCLIC IRAK AND FLT3 INHIBITING COMPOUNDS AND USES THEREOF” (CHILDREN'S HOSPITAL MEDICAL CENTER, priority 2022, published 2025).
Entries after “also recorded” stand apart in the source; their conditions may differ.

Legend:
hERG = hERG (Homo sapiens, UniProt Q12809); experiment: Window to the hERG IC50 at the dose studied (FIG. 9B); details: at the dose studied (30 mg/kg, mice)
MOLM14 (D835Y) cells = experiment: Combination drug screening, Cell Titer Glo, MOLM14 (D835Y) cells; details: FLT3 mutant setting (ITD-D835Y cells), Cell Titer Glo, 48 hours;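 note: MOLM14 cells with FLT3 ITD plus D835Y, 500 per well in 1536-well plates, 10-point dose ranges, luminescent viability after 48 h, negative Excess HSA indicates synergy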
Experimental: Briefly, 10 nL of the compound shown below was acoustically dispensed into 1536-well white polystyrene tissue culture-treated plates with an Echo 550 acoustic liquid handler (Labcyte). Cells were then added to compound-containing plate at a density of 500-cells/well in 5 μL of medium. A 6-point or 10-point custom concentration range was used for all listed drugs. Plates were incubated for 48 hours at standard incubator conditions covered by a stainless steel gasketed lid to prevent evaporation. 48h post compound addition, 3 μL of Cell Titer Glo (Promega) were added to each well and plates were incubated at room temperature for 15 minutes with the stainless-steel lid in place. Luminescence readings were taken using a Viewlux imager (PerkinElmer) with a 2 second exposure time per plate.
A smaller concentration indicates higher potency to synergize with Venetoclax.
A smaller concentration indicates higher potency to synergize with azacitidine.
(§1) This is a cell line that has the FLT3 ITD mutation but also the FLT3 D835Y kinase domain mutation. […] Excess HSA is a measure of synergy vs. additivity or antagonism, wherein a negative Excess HSA value is indicative of synergy.

[1] = test system: MOLM14-FLT3-ITD(D835Y) acute myeloid leukemia cells; experiment: AML efficacy study in mice engrafted with MOLM14-FLT3-ITD(D835Y); type: in vivo
Experimental: Female, NSG-SGM3 (NOD.Cg-Prkdc^scid Il2^tm1Wjl Tg(CMV-IL3, CSF2, KITLG)1Eav/MloySzJ) mice were intravascularly engrafted with MOLM14-FLT3-ITD(D835Y) acute myeloid leukemia cells. Injection of leukemia cells was performed on 3/21/2022. Mice were randomized and dosing began three weeks following engraftment. […] Mice experiencing clinical signs prior to scheduled end-date, including weight loss, lethargy, hunched posture, ruffled coat, or hind limb paralysis were humanely euthanized.
Bone marrow aspirates were performed when the initial vehicle control mice became clinical, 9 days following initiation of treatment. Aspirates were centrifuged, treated with RBC lysis buffer, resuspended in 250 μL PBS, and two cytospin chamber slides were loaded with 125 μL. Cytospins were used to create two cytology slides per mouse: one for Wright-Giemsa staining and the other for huCD45 immunocytochemistry, if needed. Cytology slides were graded according to the number of leukemic cells identified per 400× field as follows: 0, none; 1, 1-5 CD45+ cells; 2, 6-10 CD45+ cells; 3, 11-15 CD45+ cells; 4, 16-30 CD45+ cells; 5, >30 CD45+ cells.
At necropsy, sections of femur, tibia, vertebra, and sternum were evaluated for the presence of leukemic cells using H&E and CD45 immunohistochemistry, if needed. Grades for long bones, vertebrae, and sternum were recorded as follows: 0, no leukemic cells; 1, <1% of cells; 2, 1-10% of cells; 3, 10-50% of bone marrow; 4, >50% of bone marrow. Sums of the individual grades were taken for each mouse (range 0 to 12).
Leukemic burden was measured in NSGS mice xenografted with MOLM14 FLT3-ITD(D835Y) and quantified using bone marrow (BM) aspirates. An initial BM aspirate, accompanied by peripheral CBC evaluation (submandibular samples), was collected at the time that clinical signs first appeared in control mice to verify AML engraftment prior to the start of drug dosing. Cytospin chambers were used to create two cytology slides per bone marrow sample. Aspirate samples were of high quality for 85% of samples. A semi-quantitative grading system was applied to each bone marrow aspirate according to the number of leukemic cells identified per 400× field as follows:
• 1: 1-5 leukemic cells (per HPF) • 2: 6-10 leukemic cells • 3: 11-15 leukemic cells • 4: 16-30 leukemic cells • 5: >30 leukemic cells
All mice had evidence of leukemia within the bone marrow aspirate. Histopathology scores we re-taken for long bones (femur and tibia), vertebrae, and sternum as follows: 0, no leukemic cells; 1, <1% of cells; 2, 1-10% of cells; 3, 10-50% of bone marrow; 4, >50% of bone marrow. Scores were totaled (range: 0 to 12) and plotted by group at necropsy. […] To incorporate survival, the bone marrow grade was divided by the time on test (FIG. 10).

THP1 cells = experiment: Combination drug screening, Cell Titer Glo, THP1 cells; details: FLT3 WT setting (THP1 cells), Cell Titer Glo, 48 hours;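 note: luminescence read out in 1536-well plates seeded with 500 THP1 cells per well, each drug spanning a 10-point concentration range in the combination matrix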
Source text: A smaller concentration indicates higher potency to synergize with Venetoclax. […] The numbers in each cell represent the % response (left) or the Delta Bliss score (right) at each given concentration combination.
A smaller concentration indicates higher potency to synergize with azacitidine. […] The numbers in each cell represent the % response (left) or the Delta Bliss score (right) at each given concentration combination.
as §1
Briefly, 10 nL of compounds were acoustically dispensed into 1536-well white polystyrene tissue culture-treated plates with an Echo 550 acoustic liquid handler (Labcyte). MOLM14 (D835Y) or THP1 cells were then added to compound-containing plates at a density of 500-cells/well in 5 μL of medium. A 10-point custom concentration range was used for all listed drugs. […] 48h post compound addition, 3 μL of Cell Titer Glo (Promega) were added to each well and plates were incubated at room temperature for 15 minutes with the stainless-steel lid in place. Luminescence readings were taken using a Viewlux imager (PerkinElmer) with a 2 second exposure time per plate.

[2] = test system: MOLM14-FLT3-ITD (D835Y) AML cells; experiment: Caspase-Glo 3/7 apoptosis assay, time course; type: cell-based

Sequence of hERG (Q12809 whole entry): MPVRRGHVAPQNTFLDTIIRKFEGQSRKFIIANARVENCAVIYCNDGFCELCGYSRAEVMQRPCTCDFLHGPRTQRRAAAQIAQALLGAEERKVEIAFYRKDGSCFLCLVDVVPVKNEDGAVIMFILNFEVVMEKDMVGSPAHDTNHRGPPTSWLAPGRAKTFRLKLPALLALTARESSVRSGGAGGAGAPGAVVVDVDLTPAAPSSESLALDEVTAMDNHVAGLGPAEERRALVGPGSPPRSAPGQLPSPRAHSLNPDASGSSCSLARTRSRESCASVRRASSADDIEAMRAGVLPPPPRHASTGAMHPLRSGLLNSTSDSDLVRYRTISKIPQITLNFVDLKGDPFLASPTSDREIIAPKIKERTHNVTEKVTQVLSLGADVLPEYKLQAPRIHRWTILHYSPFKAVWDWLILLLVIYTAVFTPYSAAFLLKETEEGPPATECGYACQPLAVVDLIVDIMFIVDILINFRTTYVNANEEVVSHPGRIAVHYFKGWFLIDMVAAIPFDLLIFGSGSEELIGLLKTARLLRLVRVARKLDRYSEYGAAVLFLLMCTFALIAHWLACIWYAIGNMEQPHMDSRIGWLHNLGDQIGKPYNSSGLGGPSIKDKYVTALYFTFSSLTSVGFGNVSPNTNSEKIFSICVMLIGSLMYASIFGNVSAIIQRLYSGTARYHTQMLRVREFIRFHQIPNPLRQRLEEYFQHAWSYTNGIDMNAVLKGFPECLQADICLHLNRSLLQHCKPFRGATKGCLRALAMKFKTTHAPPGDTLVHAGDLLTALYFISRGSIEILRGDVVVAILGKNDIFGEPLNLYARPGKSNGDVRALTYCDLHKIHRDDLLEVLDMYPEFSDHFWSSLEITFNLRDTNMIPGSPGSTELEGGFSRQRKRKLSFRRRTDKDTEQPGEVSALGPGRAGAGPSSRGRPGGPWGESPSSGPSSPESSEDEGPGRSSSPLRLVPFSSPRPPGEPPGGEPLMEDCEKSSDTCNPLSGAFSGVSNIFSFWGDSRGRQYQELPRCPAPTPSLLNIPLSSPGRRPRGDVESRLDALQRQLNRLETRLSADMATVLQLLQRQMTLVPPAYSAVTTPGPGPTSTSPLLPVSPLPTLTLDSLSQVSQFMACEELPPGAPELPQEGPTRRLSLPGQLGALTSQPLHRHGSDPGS

SMILES: COc1cc2ncc(-c3nc(N[C@@H]4CCCNC4)c(F)cc3F)n2nc1C1CC1 [Compound 106, (R)-6-(6-cyclopropyl-7-methoxyimidazo[1,2-b]pyridazin-3-yl)-3,5-difluoro-N-(piperidin-3-yl)pyridin-2-amine]
- window to the hERG IC50 (hERG): larger window to the hERG IC50 than does emavusertib (CA-4948)
- synergy with venetoclax or azacitidine (MOLM14 (D835Y) cells): considerably more potent as a synergistic agent than either Gilteritinib or emavusertib (CA-4948)
- survival ([1]; 30 mg/kg orally once/day M-F, 90 days, NSG-SGM3 mice): Significant survival differences; also recorded: enhanced survival in mice compared to gilteritinib and CA-4948 (emavusertib); also recorded: improved survival compared to those treated with gilteritinib or emavusertib (CA-4948)
- plasma levels (Cmax and AUC) against comparators ([1]; 30 mg/kg, mice, FIG. 9B): not due to higher plasma levels vs. gilteritinib or emavusertib
- survival-adjusted leukemic burden (bone marrow grade divided by time on test) ([1]; 90 day study, 30 mg/kg): decreased scores compared to standard of care F02 (Gilteritinib); also recorded: superior in reducing survival-adjusted leukemic burden
- survival persisting after withdrawal of the compound ([1]; after 90 days of treatment at 30 mg/kg, study then ended): 7 days
- bone marrow grades (leukemic burden) at necropsy ([1]; sum of histopathology scores of long bones, vertebrae, sternum (range 0 to 12)): Decreased bone marrow grades
- synergy with venetoclax or azacitidine (THP1 cells): considerably more potent as a synergistic agent than either Gilteritinib or emavusertib (CA-4948)
- combination activity with venetoclax (apoptosis induction) ([2]; dose level 6: gilteritinib 25 nM or Compound 106 12 nM with venetoclax 25 nM): much stronger than any of the other drug combinations
- combination activity with venetoclax (apoptosis induction over 24 hours) ([2]; dose level 7: 4 nM of Compound 106 and 8 nM of venetoclax): high activity
- cells entering apoptosis, combination with venetoclax ([2]; dose level 7: 4 nM of Compound 106 and 8 nM of venetoclax, four hours): about half of the cells enter into apoptosis in four hours
- combination activity with venetoclax (apoptosis induction over 24 hours) ([2]; dose level 8: 1.37 nM of Compound 106 and 2.7 nM of venetoclax): high activity
- cells stimulated to apoptosis ([2]; single agent, 1.37 nM, 12 hours of coverage): about 30%
- time at which apoptosis starts, single agent ([2]; single agent, even at the lowest dose of 1.37 nM, Caspase-Glo 3/7): ≤ 12 h
